Test results as given in the kinase profiling compilation of Christmann-Franck et al. (2016).

Columns and labels:
Experiment in all cases: radiometric filter-binding kinase assay
CAMKK2 (human) = CAMKK2 (human) (UniProt Q96RR4)
CDK2 CCNA2 (human) = CDK2 CCNA2 (human) (UniProt P20248+P24941)
CSK (human) = CSK (human) (UniProt P41240)
CaMK1 (human) = CaMK1 (human) (UniProt Q14012)
DYRK2 (human) = DYRK2 (human) (UniProt Q92630)
HIPK3 (human) = HIPK3 (human) (UniProt Q9H422)
LCK (mouse) = conditions: accession and sequence are those of the human protein
MAP2K1 (human) = MAP2K1 (human) (UniProt Q02750)
MAPK15 (human) = MAPK15 (human) (UniProt Q8TD08)
MAPKAPK2 (human) = MAPKAPK2 (human) (UniProt P49137)
MKNK1 (human) = MKNK1 (human) (UniProt Q9BUB5)
NEK2 (human) = NEK2 (human) (UniProt P51955)
NEK6 (human) = NEK6 (human) (UniProt Q9HC98)
PAK7 (human) = PAK7 (human) (UniProt Q9P286)
PHKG1 (human) = PHKG1 (human) (UniProt Q16816)
PRKAA1 or PRKAA2 (rat) = conditions: accession and sequence are those of the human protein
PRKACA (human) = PRKACA (human) (UniProt P17612)
PRKCA (human) = PRKCA (human) (UniProt P17252)
RPS6KA5 KD1 KD2 (human) = RPS6KA5 KD1 KD2 (human) (UniProt O75582)
SRPK1 (human) = SRPK1 (human) (UniProt Q96SB4)
BTK (human) = BTK (human) (UniProt Q06187)
EPHA2 (human) = EPHA2 (human) (UniProt P29317)
INSR (human) = INSR (human) (UniProt P06213); conditions: compound 0.1 µM
INSRR (human) = INSRR (human) (UniProt P14616)
MST4 (human) = MST4 (human) (UniProt Q9P289)

SRPK1 (human), sequence (Q96SB4 whole entry, looked up): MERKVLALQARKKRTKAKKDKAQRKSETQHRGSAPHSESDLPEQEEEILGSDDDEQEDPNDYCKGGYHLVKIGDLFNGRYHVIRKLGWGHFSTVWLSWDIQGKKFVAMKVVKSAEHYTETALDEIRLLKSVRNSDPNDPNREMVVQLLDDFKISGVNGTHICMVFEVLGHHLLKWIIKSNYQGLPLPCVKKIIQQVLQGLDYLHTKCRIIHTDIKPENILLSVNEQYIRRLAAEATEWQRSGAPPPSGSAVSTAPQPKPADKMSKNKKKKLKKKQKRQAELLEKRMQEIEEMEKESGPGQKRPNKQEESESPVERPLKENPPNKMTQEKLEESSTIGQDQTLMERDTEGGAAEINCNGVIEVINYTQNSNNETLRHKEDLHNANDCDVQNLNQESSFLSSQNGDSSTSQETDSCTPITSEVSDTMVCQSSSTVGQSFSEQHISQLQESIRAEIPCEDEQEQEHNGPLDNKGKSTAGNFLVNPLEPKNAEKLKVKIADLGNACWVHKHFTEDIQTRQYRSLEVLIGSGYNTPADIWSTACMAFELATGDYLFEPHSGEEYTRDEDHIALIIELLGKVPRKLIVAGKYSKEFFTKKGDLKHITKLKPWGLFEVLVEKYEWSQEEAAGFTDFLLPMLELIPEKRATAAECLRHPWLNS
CSK (human), sequence (P41240 whole entry, looked up): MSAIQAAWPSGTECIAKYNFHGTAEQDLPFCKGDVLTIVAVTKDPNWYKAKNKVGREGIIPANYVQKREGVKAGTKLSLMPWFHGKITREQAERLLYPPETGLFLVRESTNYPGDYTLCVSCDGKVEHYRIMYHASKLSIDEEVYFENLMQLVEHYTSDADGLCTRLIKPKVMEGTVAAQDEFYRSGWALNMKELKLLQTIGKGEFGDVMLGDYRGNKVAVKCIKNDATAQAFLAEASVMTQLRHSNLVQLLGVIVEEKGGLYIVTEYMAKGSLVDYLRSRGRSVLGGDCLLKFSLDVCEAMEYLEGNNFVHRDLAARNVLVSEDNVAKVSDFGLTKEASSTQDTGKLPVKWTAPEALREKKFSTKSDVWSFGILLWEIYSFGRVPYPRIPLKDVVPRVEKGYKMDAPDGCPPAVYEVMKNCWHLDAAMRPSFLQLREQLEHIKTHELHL
DYRK2 (human), sequence (Q92630 whole entry, looked up): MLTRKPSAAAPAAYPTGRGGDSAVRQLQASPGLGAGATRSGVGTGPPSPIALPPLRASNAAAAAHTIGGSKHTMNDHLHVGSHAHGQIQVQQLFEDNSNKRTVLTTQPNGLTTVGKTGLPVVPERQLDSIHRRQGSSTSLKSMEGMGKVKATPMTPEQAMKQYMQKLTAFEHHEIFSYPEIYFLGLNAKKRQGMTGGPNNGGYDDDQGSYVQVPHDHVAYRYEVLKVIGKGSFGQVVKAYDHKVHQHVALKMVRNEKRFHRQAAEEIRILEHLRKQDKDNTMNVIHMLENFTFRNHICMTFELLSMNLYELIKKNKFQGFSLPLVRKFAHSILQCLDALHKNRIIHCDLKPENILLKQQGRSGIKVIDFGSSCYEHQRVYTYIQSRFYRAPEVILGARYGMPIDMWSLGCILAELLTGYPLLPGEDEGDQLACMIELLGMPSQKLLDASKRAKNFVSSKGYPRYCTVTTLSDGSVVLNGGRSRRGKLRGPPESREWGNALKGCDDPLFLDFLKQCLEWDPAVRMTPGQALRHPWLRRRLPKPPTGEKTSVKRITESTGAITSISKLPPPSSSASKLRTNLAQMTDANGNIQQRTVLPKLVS
RPS6KA5 KD1 KD2 (human), sequence (O75582 whole entry, looked up): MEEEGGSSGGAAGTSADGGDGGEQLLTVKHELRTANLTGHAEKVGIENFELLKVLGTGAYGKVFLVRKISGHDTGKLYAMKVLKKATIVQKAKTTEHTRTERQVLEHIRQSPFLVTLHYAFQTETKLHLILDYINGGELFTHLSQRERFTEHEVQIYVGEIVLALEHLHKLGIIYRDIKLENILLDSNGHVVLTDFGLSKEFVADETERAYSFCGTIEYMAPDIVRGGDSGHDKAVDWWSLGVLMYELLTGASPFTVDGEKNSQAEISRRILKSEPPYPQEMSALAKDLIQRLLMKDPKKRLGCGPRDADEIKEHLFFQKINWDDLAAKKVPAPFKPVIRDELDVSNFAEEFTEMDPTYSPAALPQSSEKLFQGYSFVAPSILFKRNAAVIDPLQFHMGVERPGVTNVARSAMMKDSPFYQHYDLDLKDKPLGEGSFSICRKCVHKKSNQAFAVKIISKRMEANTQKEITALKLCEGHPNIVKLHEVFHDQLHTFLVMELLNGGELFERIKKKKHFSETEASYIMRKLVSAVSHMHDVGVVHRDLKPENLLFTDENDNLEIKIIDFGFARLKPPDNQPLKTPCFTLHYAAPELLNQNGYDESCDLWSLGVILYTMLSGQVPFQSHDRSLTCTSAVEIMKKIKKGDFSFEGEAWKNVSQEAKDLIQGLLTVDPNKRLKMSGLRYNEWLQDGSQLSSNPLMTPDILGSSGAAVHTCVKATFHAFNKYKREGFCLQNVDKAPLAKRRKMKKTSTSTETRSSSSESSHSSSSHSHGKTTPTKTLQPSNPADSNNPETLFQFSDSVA
CAMKK2 (human), sequence (Q96RR4 whole entry, looked up): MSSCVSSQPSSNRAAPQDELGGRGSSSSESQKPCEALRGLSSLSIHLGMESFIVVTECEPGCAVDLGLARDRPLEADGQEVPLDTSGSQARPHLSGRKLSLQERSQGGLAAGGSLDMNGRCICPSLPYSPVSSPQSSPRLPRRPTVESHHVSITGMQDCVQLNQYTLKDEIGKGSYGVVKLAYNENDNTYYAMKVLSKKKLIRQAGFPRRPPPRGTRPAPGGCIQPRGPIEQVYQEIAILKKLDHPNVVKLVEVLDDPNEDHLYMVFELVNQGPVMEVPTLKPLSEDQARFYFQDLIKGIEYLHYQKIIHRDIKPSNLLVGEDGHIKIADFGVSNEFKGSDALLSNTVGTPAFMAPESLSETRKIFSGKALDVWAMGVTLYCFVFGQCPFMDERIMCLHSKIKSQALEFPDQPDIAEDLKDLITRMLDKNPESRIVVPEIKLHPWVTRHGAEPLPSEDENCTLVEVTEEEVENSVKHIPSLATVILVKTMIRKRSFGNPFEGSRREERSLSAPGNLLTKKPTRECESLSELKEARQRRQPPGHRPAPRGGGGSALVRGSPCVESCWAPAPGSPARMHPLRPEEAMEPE
MAP2K1 (human), sequence (Q02750 whole entry, looked up): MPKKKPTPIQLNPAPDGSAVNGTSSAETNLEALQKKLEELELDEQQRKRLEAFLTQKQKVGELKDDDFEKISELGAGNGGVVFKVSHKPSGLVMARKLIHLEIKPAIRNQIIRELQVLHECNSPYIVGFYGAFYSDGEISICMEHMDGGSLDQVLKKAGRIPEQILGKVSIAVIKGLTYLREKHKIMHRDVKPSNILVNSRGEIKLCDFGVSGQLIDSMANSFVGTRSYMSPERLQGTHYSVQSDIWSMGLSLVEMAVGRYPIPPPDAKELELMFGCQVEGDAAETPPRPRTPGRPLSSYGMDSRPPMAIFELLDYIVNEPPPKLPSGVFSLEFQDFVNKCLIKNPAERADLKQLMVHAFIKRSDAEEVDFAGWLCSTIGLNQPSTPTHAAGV
HIPK3 (human), sequence (Q9H422 whole entry, looked up): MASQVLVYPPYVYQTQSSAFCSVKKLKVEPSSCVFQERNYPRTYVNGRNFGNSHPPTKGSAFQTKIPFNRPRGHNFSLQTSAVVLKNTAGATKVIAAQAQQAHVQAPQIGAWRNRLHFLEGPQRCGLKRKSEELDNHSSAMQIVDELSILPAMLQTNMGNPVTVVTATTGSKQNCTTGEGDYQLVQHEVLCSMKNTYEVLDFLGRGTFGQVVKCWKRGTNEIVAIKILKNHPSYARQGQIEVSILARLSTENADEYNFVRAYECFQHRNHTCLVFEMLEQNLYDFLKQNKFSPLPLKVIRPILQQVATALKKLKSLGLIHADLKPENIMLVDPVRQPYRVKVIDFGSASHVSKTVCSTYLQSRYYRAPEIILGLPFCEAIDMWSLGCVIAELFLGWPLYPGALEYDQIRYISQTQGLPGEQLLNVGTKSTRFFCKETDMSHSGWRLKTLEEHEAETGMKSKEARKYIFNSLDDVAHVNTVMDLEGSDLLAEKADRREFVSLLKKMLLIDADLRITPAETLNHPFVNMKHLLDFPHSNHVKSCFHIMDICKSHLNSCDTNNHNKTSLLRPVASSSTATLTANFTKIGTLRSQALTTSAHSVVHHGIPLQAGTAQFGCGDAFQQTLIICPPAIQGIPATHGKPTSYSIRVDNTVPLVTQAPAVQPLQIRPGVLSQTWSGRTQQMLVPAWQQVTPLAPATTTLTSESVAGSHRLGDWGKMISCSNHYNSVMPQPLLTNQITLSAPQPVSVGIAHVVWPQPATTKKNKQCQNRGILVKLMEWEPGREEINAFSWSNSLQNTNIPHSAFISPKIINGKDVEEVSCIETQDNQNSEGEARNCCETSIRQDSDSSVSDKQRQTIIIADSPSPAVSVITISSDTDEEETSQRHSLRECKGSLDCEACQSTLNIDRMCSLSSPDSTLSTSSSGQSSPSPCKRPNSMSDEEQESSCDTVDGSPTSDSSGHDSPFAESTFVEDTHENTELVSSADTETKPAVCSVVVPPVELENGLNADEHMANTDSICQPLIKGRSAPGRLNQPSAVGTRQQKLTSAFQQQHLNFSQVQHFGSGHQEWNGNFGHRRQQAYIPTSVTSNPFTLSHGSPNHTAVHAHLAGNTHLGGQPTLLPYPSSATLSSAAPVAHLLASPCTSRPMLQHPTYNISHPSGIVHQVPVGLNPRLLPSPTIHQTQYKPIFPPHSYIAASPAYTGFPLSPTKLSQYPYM
NEK6 (human), sequence (Q9HC98 whole entry, looked up): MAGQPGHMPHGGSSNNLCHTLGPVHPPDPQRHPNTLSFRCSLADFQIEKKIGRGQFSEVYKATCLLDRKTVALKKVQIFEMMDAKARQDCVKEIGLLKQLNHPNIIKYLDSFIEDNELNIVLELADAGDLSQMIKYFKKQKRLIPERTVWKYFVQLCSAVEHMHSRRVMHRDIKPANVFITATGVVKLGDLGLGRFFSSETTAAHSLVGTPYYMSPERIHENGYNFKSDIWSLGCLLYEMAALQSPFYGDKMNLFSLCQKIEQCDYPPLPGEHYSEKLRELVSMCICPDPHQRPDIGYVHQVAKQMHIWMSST

COc1ccc2c(c1)c1c3c(c4c5ccccc5n(C)c4c1n2CC(O)CN(C)C)C(=O)NC3=O (stereo not given)
residual activity (CAMKK2 (human); compound 0.1 µM): 113% | residual activity (CAMKK2 (human); compound 1.0 µM): 68% | residual activity (CAMKK2 (human); compound 10.0 µM): 37% | residual activity (CDK2 CCNA2 (human); compound 0.1 µM): 95% | residual activity (CDK2 CCNA2 (human); compound 1.0 µM): 90% | residual activity (CDK2 CCNA2 (human); compound 10.0 µM): 81% | residual activity (CSK (human); compound 0.1 µM): 84% | residual activity (CSK (human); compound 1.0 µM): 78% | residual activity (CSK (human); compound 10.0 µM): 58% | residual activity (CaMK1 (human); compound 0.1 µM): 79% | residual activity (CaMK1 (human); compound 1.0 µM): 55% | residual activity (CaMK1 (human); compound 10.0 µM): 16% | residual activity (DYRK2 (human); compound 0.1 µM): 98% | residual activity (DYRK2 (human); compound 1.0 µM): 65% | residual activity (DYRK2 (human); compound 10.0 µM): 70% | residual activity (HIPK3 (human); compound 0.1 µM): 108% | residual activity (HIPK3 (human); compound 1.0 µM): 106% | residual activity (HIPK3 (human); compound 10.0 µM): 59% | residual activity (LCK (mouse); compound 0.1 µM): 103% | residual activity (LCK (mouse); compound 1.0 µM): 75% | residual activity (LCK (mouse); compound 10.0 µM): 41% | residual activity (MAP2K1 (human); compound 0.1 µM): 82% | residual activity (MAP2K1 (human); compound 1.0 µM): 27% | residual activity (MAP2K1 (human); compound 10.0 µM): 16% | residual activity (MAPK15 (human); compound 0.1 µM): 78% | residual activity (MAPK15 (human); compound 1.0 µM): 53% | residual activity (MAPK15 (human); compound 10.0 µM): 54% | residual activity (MAPKAPK2 (human); compound 0.1 µM): 107% | residual activity (MAPKAPK2 (human); compound 1.0 µM): 93% | residual activity (MAPKAPK2 (human); compound 10.0 µM): 62% | residual activity (MKNK1 (human); compound 0.1 µM): 94% | residual activity (MKNK1 (human); compound 1.0 µM): 80% | residual activity (MKNK1 (human); compound 10.0 µM): 62% | residual activity (NEK2 (human); compound 0.1 µM): 95% | residual activity (NEK2 (human); compound 1.0 µM): 80% | residual activity (NEK2 (human); compound 10.0 µM): 59% | residual activity (NEK6 (human); compound 0.1 µM): 99% | residual activity (NEK6 (human); compound 1.0 µM): 87% | residual activity (NEK6 (human); compound 10.0 µM): 84% | residual activity (PAK7 (human); compound 0.1 µM): 108% | residual activity (PAK7 (human); compound 1.0 µM): 81% | residual activity (PAK7 (human); compound 10.0 µM): 85% | residual activity (PHKG1 (human); compound 0.1 µM): 77% | residual activity (PHKG1 (human); compound 1.0 µM): 17% | residual activity (PHKG1 (human); compound 10.0 µM): 11% | residual activity (PRKAA1 or PRKAA2 (rat); compound 0.1 µM): 64% | residual activity (PRKAA1 or PRKAA2 (rat); compound 1.0 µM): 19% | residual activity (PRKAA1 or PRKAA2 (rat); compound 10.0 µM): 24% | residual activity (PRKACA (human); compound 0.1 µM): 42% | residual activity (PRKACA (human); compound 1.0 µM): 7% | residual activity (PRKACA (human); compound 10.0 µM): 2% | residual activity (PRKCA (human); compound 0.1 µM): 5% | residual activity (PRKCA (human); compound 1.0 µM): 1% | residual activity (PRKCA (human); compound 10.0 µM): 1% | residual activity (RPS6KA5 KD1 KD2 (human); compound 0.1 µM): 11% | residual activity (RPS6KA5 KD1 KD2 (human); compound 1.0 µM): 3% | residual activity (RPS6KA5 KD1 KD2 (human); compound 10.0 µM): 3% | residual activity (SRPK1 (human); compound 0.1 µM): 113% | residual activity (SRPK1 (human); compound 1.0 µM): 89% | residual activity (SRPK1 (human); compound 10.0 µM): 77%

Cn1c(=O)c2c(ncn2C)n(C)c1=O
residual activity (BTK (human); compound 0.1 µM): 79% | residual activity (BTK (human); compound 1.0 µM): 78% | residual activity (CAMKK2 (human); compound 0.1 µM): 104% | residual activity (CAMKK2 (human); compound 1.0 µM): 103% | residual activity (CDK2 CCNA2 (human); compound 0.1 µM): 86% | residual activity (CDK2 CCNA2 (human); compound 1.0 µM): 91% | residual activity (CSK (human); compound 0.1 µM): 100% | residual activity (CSK (human); compound 1.0 µM): 103% | residual activity (CaMK1 (human); compound 0.1 µM): 90% | residual activity (CaMK1 (human); compound 1.0 µM): 101% | residual activity (DYRK2 (human); compound 0.1 µM): 81% | residual activity (DYRK2 (human); compound 1.0 µM): 87% | residual activity (EPHA2 (human); compound 0.1 µM): 96% | residual activity (EPHA2 (human); compound 1.0 µM): 102% | residual activity (INSR (human)): 104% | residual activity (INSRR (human); compound 0.1 µM): 86% | residual activity (INSRR (human); compound 1.0 µM): 80% | residual activity (LCK (mouse); compound 0.1 µM): 88% | residual activity (LCK (mouse); compound 1.0 µM): 92% | residual activity (MAPK15 (human); compound 0.1 µM): 88% | residual activity (MAPK15 (human); compound 1.0 µM): 95% | residual activity (MAPKAPK2 (human); compound 0.1 µM): 102% | residual activity (MAPKAPK2 (human); compound 1.0 µM): 89% | residual activity (MKNK1 (human); compound 0.1 µM): 110% | residual activity (MKNK1 (human); compound 1.0 µM): 99% | residual activity (MST4 (human); compound 0.1 µM): 96% | residual activity (MST4 (human); compound 1.0 µM): 97% | residual activity (NEK2 (human); compound 0.1 µM): 107% | residual activity (NEK2 (human); compound 1.0 µM): 102% | residual activity (NEK6 (human); compound 0.1 µM): 79% | residual activity (NEK6 (human); compound 1.0 µM): 89% | residual activity (PAK7 (human); compound 0.1 µM): 102% | residual activity (PAK7 (human); compound 1.0 µM): 114% | residual activity (PHKG1 (human); compound 0.1 µM): 113% | residual activity (PHKG1 (human); compound 1.0 µM): 115% | residual activity (PRKAA1 or PRKAA2 (rat); compound 0.1 µM): 90% | residual activity (PRKAA1 or PRKAA2 (rat); compound 1.0 µM): 98% | residual activity (PRKACA (human); compound 0.1 µM): 103% | residual activity (PRKACA (human); compound 1.0 µM): 96% | residual activity (PRKCA (human); compound 0.1 µM): 101% | residual activity (PRKCA (human); compound 1.0 µM): 100% | residual activity (RPS6KA5 KD1 KD2 (human); compound 0.1 µM): 80% | residual activity (RPS6KA5 KD1 KD2 (human); compound 1.0 µM): 82% | residual activity (SRPK1 (human); compound 0.1 µM): 93% | residual activity (SRPK1 (human); compound 1.0 µM): 97%
